# Test results reported in ChEMBL document CHEMBL1938302, “Synthesis of novel histamine H4 receptor antagonists” (Bioorg Med Chem Lett, 2012).
# Where “and” joins values, the source holds several entries; their conditions need not be identical. Equal values may be shown once. Calls of active or inactive are those of the source. The calls are words filed in the database; no cut-off is given here.
# Assays:
# [1] = biological target: T1, Histamine H4 receptor (Homo sapiens, UniProt Q9H3N8); test: Antagonist activity at human histamine H4 receptor expressed in HEK293 cells assessed as rev inhibition of forskolin-stimulated cAMP accumulation by CRE-betalactamase reporter gene assay; format: functional, cell-based
# [2] = biological target: Histamine H3 receptor (Homo sapiens, UniProt Q9Y5N1); test: Binding affinity to human histamine H3 receptor
# Chain of Histamine H3 receptor (Q9Y5N1 whole entry): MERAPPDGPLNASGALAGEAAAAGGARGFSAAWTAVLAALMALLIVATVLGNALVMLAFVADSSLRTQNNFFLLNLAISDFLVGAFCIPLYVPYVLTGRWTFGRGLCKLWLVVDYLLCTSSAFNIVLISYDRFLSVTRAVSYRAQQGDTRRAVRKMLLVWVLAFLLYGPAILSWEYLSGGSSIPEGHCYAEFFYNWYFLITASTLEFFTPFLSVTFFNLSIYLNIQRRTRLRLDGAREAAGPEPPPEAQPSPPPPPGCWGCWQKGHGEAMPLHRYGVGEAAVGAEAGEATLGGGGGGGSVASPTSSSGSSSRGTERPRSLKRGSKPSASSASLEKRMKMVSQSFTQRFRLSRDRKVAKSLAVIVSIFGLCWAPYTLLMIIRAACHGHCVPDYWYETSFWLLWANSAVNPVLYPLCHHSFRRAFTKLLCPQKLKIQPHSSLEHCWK
# [3] = Metabolic stability in human liver microsomes; format: ADME, Microsome; details: read-out: Stability
# [4] = test system: Rattus norvegicus; test: Clearance in rat at 1 mg/kg, iv; format: ADME, organism-based; parameters: dose 1 mg/kg, route intravenous; details: in vivo
# [5] = Half life in rat at 1 mg/kg, iv; format: ADME, organism-based; parameters: dose 1 mg/kg, route intravenous; details: in vivo
# [6] = Volume of distribution in rat at 1 mg/kg, iv; format: ADME, organism-based; parameters: dose 1 mg/kg, route intravenous; details: in vivo
# [7] = biological target: T1, Histamine H4 receptor; test: Displacement of [3H]histamine from human recombinant histamine H4 receptor expressed in CHO cells coexpressing Ga15 by radioligand filtration binding assay; format: cell-based
# [8] = Chemical stability of the compound in methanol; format: physicochemical
# [9] = Oral bioavailability in rat; format: ADME, organism-based; details: in vivo
# [10] = Half life in rat; format: ADME, organism-based; details: in vivo
# [11] = Half life in rat at 3 mg/kg, sc; format: ADME, organism-based; parameters: dose 3 mg/kg, route subcutaneous; details: in vivo
# [12] = test system: Rattus norvegicus; test: Volume of distribution in rat at 3 mg/kg, sc; format: ADME, organism-based; parameters: dose 3 mg/kg, route subcutaneous; details: in vivo
# [13] = Metabolic stability in rat liver microsomes; format: ADME, Microsome; details: read-out: Stability
# [14] = test system: Rattus norvegicus; test: Clearance in rat at 10 mg/kg, sc; format: ADME, organism-based; parameters: dose 10 mg/kg, route subcutaneous; details: in vivo
# [15] = Half life in rat at 10 mg/kg, sc; format: ADME, organism-based; parameters: dose 10 mg/kg, route subcutaneous; details: in vivo
# [16] = test system: Rattus norvegicus; test: Volume of distribution in rat at 10 mg/kg, sc; format: ADME, organism-based; parameters: dose 10 mg/kg, route subcutaneous; details: in vivo
Structure (SMILES),Ki [1] [nM],Ki [2],Ki [7] [nM],Stability [8],further results
CN1C[C@@H]2CN(C(=O)c3nc4cc(F)ccc4[nH]3)C[C@@H]2C1,145,15500 nM,,,microsomal CLint [3]: < 7 µL/min/mg; clearance [4]: 161 mL/min/kg; half-life [5]: 42 min; Vd [6]: 6.1 L/kg
CN1C[C@@H]2CN(C(=N)c3nc4cc(F)ccc4[nH]3)C[C@@H]2C1,9.1,1190 nM,4.6,Unstable,
CN1C[C@@H]2CN(C(=N)c3nc4cc(F)c(F)cc4[nH]3)C[C@@H]2C1,17.2,3090 nM,9.5,Unstable,microsomal CLint [3]: < 7 µL/min/mg; clearance [4]: 31 mL/min/kg; half-life [5]: 660 min; Vd [6]: 48 L/kg; bioavailability [9]: 20%
CCN1C[C@@H]2CN(C(=O)c3nc4cc(Cl)ccc4[nH]3)C[C@@H]2C1,3300,,1960,,
CN1CCN(C(=O)c2cn3ccncc3n2)CC1,> 20000,,20100,,
CN1C[C@@H]2CN(C(=O)c3cc4cccnc4[nH]3)C[C@@H]2C1,,,973,,
CN1C[C@@H]2CN(C(=O)c3cc4ccc(Cl)nc4[nH]3)C[C@@H]2C1,,,2090,,
Cc1c(F)ccc2nc(C(=O)N3C[C@H]4CN(C)C[C@H]4C3)[nH]c12,97,,52,,microsomal CLint [3]: < 7 µL/min/mg; microsomal CLint [13]: 214 µL/min/mg
CN1C[C@@H]2CN(C(=N)c3nc4c(F)c(F)ccc4[nH]3)C[C@@H]2C1,,,49,Unstable,
CN1C[C@@H]2CN(C(=N)c3nc4c(F)c(F)c(F)cc4[nH]3)C[C@@H]2C1,20,> 20000 nM,70,Unstable,
CN1CCN(C(=O)c2cn3cc(Cl)ccc3n2)CC1,> 11400,28600 nM,3170,,
CN1C[C@@H]2CN(C(=O)c3cc4cc(Cl)cnc4[nH]3)C[C@@H]2C1,,,83,,
CC(C)N1C[C@H]2CN(C(=O)c3nc4cc(Cl)ccc4[nH]3)C[C@H]2C1,4490,,2670,,

# More lines, main results first:
Ki [1] [nM],Ki [2],Ki [7] [nM],Stability [8],Structure (SMILES),further results
,,,Stable,Clc1ccc2[nH]c(C3=NCCN3)nc2c1,inhibition [7]: inactive; inhibition [1]: inactive
,15300 nM and > 20000 nM,,,CN1CCN(C(=O)c2cc3cc(Cl)ccc3[nH]2)CC1 [JNJ-7777120],half-life [10]: 42 min; half-life [11]: 12 min; Vd [12]: 2.3 L/kg
218,,129,,CN1C[C@@H]2CN(C(=O)c3nc4cc(Cl)ccc4[nH]3)C[C@@H]2C1,microsomal CLint [3]: < 7 µL/min/mg; microsomal CLint [13]: 36 µL/min/mg
,20000 nM,,,CN1CCN(C(=O)c2nc3cc(Cl)ccc3[nH]2)CC1,microsomal CLint [3]: 19 µL/min/mg; clearance [14]: 700 mL/min/kg; half-life [15]: 42 min; Vd [16]: 23 L/kg
12.4,3810 nM,6.5,Unstable,CN1C[C@@H]2CN(C(=N)c3nc4ccccc4[nH]3)C[C@@H]2C1,
236,17900 nM,,,CN1C[C@@H]2CN(C(=O)c3nc4cc(F)c(F)cc4[nH]3)C[C@@H]2C1,microsomal CLint [3]: < 7 µL/min/mg; microsomal CLint [13]: 40 µL/min/mg; clearance [4]: 58 mL/min/kg; half-life [5]: 48 min
56,,,Unstable,CN1C[C@@H]2CN(C(=N)c3nc4cc(Cl)ccc4[nH]3)C[C@@H]2C1,
> 29900,36600 nM,3100,,CN1CCN(C(=O)c2cc3cccnc3[nH]2)CC1,
134,,74,,CN1C[C@@H]2CN(C(=O)c3nc4ccc(F)c(F)c4[nH]3)C[C@@H]2C1,
8180,,5080,,O=C(c1nc2cc(Cl)ccc2[nH]1)N1C[C@H]2CNC[C@H]2C1,
189,,102,,CN1C[C@@H]2CN(C(=O)c3nc4ccccc4[nH]3)C[C@@H]2C1,
,8750 nM,,,CN1C[C@@H]2CN(C(=O)c3cc4cc(Cl)ccc4[nH]3)C[C@@H]2C1,microsomal CLint [3]: < 7 µL/min/mg
9.3,,4.6,Unstable,Cc1c(F)ccc2nc(C(=N)N3C[C@H]4CN(C)C[C@H]4C3)[nH]c12,
,,,Stable,CN1C[C@@H]2CN3C(c4nc5cc(F)c(F)cc5[nH]4)=NC[C@H]3[C@@H]2C1,inhibition [7]: inactive; inhibition [1]: inactive
